pIC50: −log10 of the molar value.
Tests used:
[1] = target: KRas(G12V) (Homo sapiens (Human), UniProt P01116, G12V); assay: KRas(G12V) GDP HTRF (BODIPY-GDP exchange TR-FRET); assay type: biochemical
[2] = test system: PC-9 cells; assay: PC9 proliferation assay; assay type: cell-based, human; conditions: Homo sapiens, PC-9, PC9; read-out: PC9 Prolif IC50 (G12V)
[3] = target: KRas (Homo sapiens (Human), UniProt P01116); assay: KRas GDP HTRF (BODIPY-GDP exchange TR-FRET); assay type: biochemical
Procedure, shortened: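 Inhibition of SOS1-mediated exchange of BODIPY-GDP on KRAS G12D, started with 3 nM recombinant human SOS1 and 300 nM BODIPY-GDP and read after 60 min. TR-FRET excitation 337 nm, ratio 520/490 nm ×10,000. IC50 from 4-parameter Hill fit of normalized data.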

[4] = test system: SW480 cells; assay: SW480 proliferation assay; assay type: cell-based; conditions: Homo sapiens, SW480, SW480; read-out: SW480 Prolif IC50 (G12V)

Sequence of KRas(G12V) (P01116-2 other isoform, or with tags, fused parts or gaps G12V): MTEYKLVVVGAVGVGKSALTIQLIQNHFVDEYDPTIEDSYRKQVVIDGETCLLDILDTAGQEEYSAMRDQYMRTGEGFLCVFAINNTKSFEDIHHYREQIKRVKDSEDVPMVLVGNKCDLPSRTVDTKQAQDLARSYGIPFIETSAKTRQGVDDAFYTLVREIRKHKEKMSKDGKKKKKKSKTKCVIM
Sequence of KRas (P01116-2 other isoform, or with tags, fused parts or gaps): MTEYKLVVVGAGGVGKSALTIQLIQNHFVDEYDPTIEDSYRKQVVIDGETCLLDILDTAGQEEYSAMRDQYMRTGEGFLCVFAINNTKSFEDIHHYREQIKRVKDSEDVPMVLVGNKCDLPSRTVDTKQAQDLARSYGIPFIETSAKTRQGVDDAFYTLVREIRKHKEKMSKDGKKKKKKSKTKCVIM

| Structure (SMILES) | pIC50 [1] | pIC50 [2] | pIC50 [3] | pIC50 [4] |
| --- | --- | --- | --- | --- |
| Cc1cc(N)nc(-c2cc3nc(OC[C@@]45CCCN4C[C@H](F)C5)nc4c3c(c2Cl)OCCN4Cc2ccn[nH]2)c1C(F)(F)F [Example 1, 6-(4-((1H-pyrazol-5-yl)methyl)-8-chloro-2-(((2R,7aS)-2-fluorotetrahydro-1H-pyrrolizin-7a(5H)-yl)methoxy)-5,6-dihydro-4H-[1,4]oxazepino[5,6,7-de]quinazolin-9-yl)-4-methyl-5-(trifluoromethyl)pyridin-2-amine] | 8.05 | 4.74 | 7.34 | 4.92 |
| Cc1cc(N)nc(-c2cc3ncnc4c3c(c2Cl)OCCN4[C@@H](C)c2cccnc2N)c1C(F)(F)F [Example 18, (S)-6-(4-(1-(2-aminopyridin-3-yl)ethyl)-8-chloro-5,6-dihydro-4H-[1,4]oxazepino[5,6,7-de]quinazolin-9-yl)-4-methyl-5-(trifluoromethyl)pyridin-2-amine] | 7.46 | 4.70 | 6.70 | 4.70 |
| Cc1cc(N)nc(-c2c(Cl)c3c4c(nc(OC[C@@]56CCCN5C[C@H](F)C6)nc4c2F)N([C@H](C)c2cncnc2N)CCO3)c1C(F)(F)F (atropisomer, axis not shown; (aS)) [Example 81, 5-((R)-1-((R)-9-(6-amino-4-methyl-3-(trifluoromethyl)pyridin-2-yl)-8-chloro-10-fluoro-2-(((2R,7aS)-2-fluorotetrahydro-1H-pyrrolizin-7a(5H)-yl)methoxy)-5,6-dihydro-4H-[1,4]oxazepino[5,6,7-de]quinazolin-4-yl)ethyl)pyrimidin-4-amine] | 10.17 | 5.11 | 10.18 | 8.21 |
| Cc1cc(N)nc(-c2c(Cl)c3c4c(nc(OC[C@@]56CCCN5C[C@H](F)C6)nc4c2F)N(C)CCO3)c1C(F)(F)F (single isomer, unassigned) [Example 41a] | 8.74 | 5.42 | 7.96 | 6.00 |
| COCC12COC(COc3nc4c5c(c(Cl)c(-c6nc(N)cc(C)c6C(F)(F)F)c(F)c5n3)OCCN4[C@H](C)c3cccnc3N)(C1)C2 [Example 149, 6-((R)-4-((R)-1-(2-aminopyridin-3-yl)ethyl)-8-chloro-10-fluoro-2-((4-(methoxymethyl)-2-oxabicyclo[2.1.1]hexan-1-yl)methoxy)-5,6-dihydro-4H-[1,4]oxazepino[5,6,7-de]quinazolin-9-yl)-4-methyl-5-(trifluoromethyl)pyridin-2-amine] | 9.68 | 4.80 | 9.11 | 7.13 |
| Cc1cc(N)nc(-c2c(Cl)c3c4c(nc(OCCN5CCN(C)CC5)nc4c2F)N([C@H](C)c2cccnc2N)CCO3)c1C(F)(F)F (atropisomer, axis not shown) [Example 135, 6-((R)-4-((R)-1-(2-aminopyridin-3-yl)ethyl)-8-chloro-10-fluoro-2-(2-(4-methylpiperazin-1-yl)ethoxy)-5,6-dihydro-4H-[1,4]oxazepino[5,6,7-de]quinazolin-9-yl)-4-methyl-5-(trifluoromethyl)pyridin-2-amine] | 10.10 | 5.82 | 9.43 | 6.41 |
| Cc1cc(N)nc(-c2c(Cl)c3c4c(nc(OC[C@@H]5CC(F)(F)CN5C)nc4c2F)N([C@H](C)c2cccnc2N)CCO3)c1C(F)(F)F (atropisomer, axis not shown) [Example 112, 6-((R)-4-((R)-1-(2-aminopyridin-3-yl)ethyl)-8-chloro-2-(((S)-4,4-difluoro-1-methylpyrrolidin-2-yl)methoxy)-10-fluoro-5,6-dihydro-4H-[1,4]oxazepino[5,6,7-de]quinazolin-9-yl)-4-methyl-5-(trifluoromethyl)pyridin-2-amine] | 9.70 | 5.37 | 9.49 | 8.74 |
| C=C1CN2CCC[C@@]2(COc2nc3c4c(c(Cl)c(-c5nc(N)cc(C)c5C(F)(F)F)cc4n2)OCCN3C)C1 [Example 44, (S)-6-(8-chloro-4-methyl-2-((2-methylenetetrahydro-1H-pyrrolizin-7a(5H)-yl)methoxy)-5,6-dihydro-4H-[1,4]oxazepino[5,6,7-de]quinazolin-9-yl)-4-methyl-5-(trifluoromethyl)pyridin-2-amine] | 8.57 | 5.32 | 7.77 | 5.39 |
| Cc1cc(N)c(F)c(-c2c(Cl)c3c4c(nc(OC[C@@]56CCCN5C[C@H](F)C6)nc4c2F)N([C@H](C)c2cccnc2N)CCO3)c1C(F)(F)F (single isomer, unassigned) [Example 73a] | 9.96 | 5.64 | 9.57 | 8.59 |
| Cc1cc(N)nc(-c2c(Cl)c3c4c(nc(OC[C@@H]5CCCN5C5COC5)nc4c2F)N([C@H](C)c2cccnc2N)CCO3)c1C(F)(F)F (atropisomer, axis not shown) [Example 117, 6-((R)-4-((R)-1-(2-aminopyridin-3-yl)ethyl)-8-chloro-10-fluoro-2-(((S)-1-(oxetan-3-yl)pyrrolidin-2-yl)methoxy)-5,6-dihydro-4H-[1,4]oxazepino[5,6,7-de]quinazolin-9-yl)-4-methyl-5-(trifluoromethyl)pyridin-2-amine] | 10.10 | 5.20 | 9.74 | 7.92 |
| Cc1cc(N)nc(-c2c(Cl)c3c4c(nc(OC[C@@H]5C[C@@H](F)CN5C)nc4c2F)N([C@H](C)c2cccnc2N)CCO3)c1C(F)(F)F (atropisomer, axis not shown) [Example 106, 6-((R)-4-((R)-1-(2-aminopyridin-3-yl)ethyl)-8-chloro-10-fluoro-2-(((2S,4R)-4-fluoro-1-methylpyrrolidin-2-yl)methoxy)-5,6-dihydro-4H-[1,4]oxazepino[5,6,7-de]quinazolin-9-yl)-4-methyl-5-(trifluoromethyl)pyridin-2-amine] | 9.89 | 6.01 | 9.85 | 8.03 |
| C=C1CN2CCC2(COc2nc3c4c(c(Cl)c(-c5nc(N)cc(C)c5C(F)(F)F)c(F)c4n2)OCCN3[C@H](C)c2cccnc2N)C1 (stereo partly drawn) [Example 118, (6R)-6-(4-((R)-1-(2-aminopyridin-3-yl)ethyl)-8-chloro-10-fluoro-2-((3-methylene-1-azabicyclo[3.2.0]heptan-5-yl)methoxy)-5,6-dihydro-4H-[1,4]oxazepino[5,6,7-de]quinazolin-9-yl)-4-methyl-5-(trifluoromethyl)pyridin-2-amine] | 10.22 | 6.14 | 9.72 | 7.48 |
| Cc1cc(N)nc(-c2c(Cl)c3c4c(nc(OC[C@@]56CCN5CC(F)(F)C6)nc4c2F)N([C@H](C)c2cncnc2N)CCO3)c1C(F)(F)F (atropisomer, axis not shown) [Example 82a, 5-((R)-1-((R)-9-(6-amino-4-methyl-3-(trifluoromethyl)pyridin-2-yl)-8-chloro-2-(((S)-3,3-difluoro-1-azabicyclo[3.2.0]heptan-5-yl)methoxy)-10-fluoro-5,6-dihydro-4H-[1,4]oxazepino[5,6,7-de]quinazolin-4-yl)ethyl)pyrimidin-4-amine] | 9.96 | 5.17 | 9.79 | 7.59 |
| Cc1cc(N)nc(-c2cc3ncnc4c3c(c2Cl)OCCN4C(c2cccnc2N)C2CC2)c1C(F)(F)F (centres unmarked) [Example 28, 6-(4-((2-aminopyridin-3-yl)(cyclopropyl)methyl)-8-chloro-5,6-dihydro-4H-[1,4]oxazepino[5,6,7-de]quinazolin-9-yl)-4-methyl-5-(trifluoromethyl)pyridin-2-amine] | 8.09 | 4.77 | 6.96 | 5.11 |
| Cc1cc(N)nc(-c2c(Cl)c3c4c(nc(OCCC5CCCN5C)nc4c2F)N([C@H](C)c2cccnc2N)CCO3)c1C(F)(F)F (stereo partly drawn) [Example 139, 6-((9R)-4-((R)-1-(2-aminopyridin-3-yl)ethyl)-8-chloro-10-fluoro-2-(2-(1-methylpyrrolidin-2-yl)ethoxy)-5,6-dihydro-4H-[1,4]oxazepino[5,6,7-de]quinazolin-9-yl)-4-methyl-5-(trifluoromethyl)pyridin-2-amine] | 10.10 | 6.08 | 9.69 | 6.62 |
| Cc1cc(N)nc(-c2c(Cl)c3c4c(nc(OCC5CCCN(C)C5)nc4c2F)N([C@H](C)c2cccnc2N)CCO3)c1C(F)(F)F (stereo partly drawn) [Example 137, 6-((9R)-4-((R)-1-(2-aminopyridin-3-yl)ethyl)-8-chloro-10-fluoro-2-((1-methylpiperidin-3-yl)methoxy)-5,6-dihydro-4H-[1,4]oxazepino[5,6,7-de]quinazolin-9-yl)-4-methyl-5-(trifluoromethyl)pyridin-2-amine] | 10.15 | 5.96 | 9.80 | 6.85 |
| Cc1cc(N)nc(-c2c(Cl)c3c4c(nc(OC[C@]56CCN5CC(F)(F)C6)nc4c2F)N([C@H](C)c2cncnc2N)CCO3)c1C(F)(F)F (atropisomer, axis not shown) [Example 82b, 5-((R)-1-((R)-9-(6-amino-4-methyl-3-(trifluoromethyl)pyridin-2-yl)-8-chloro-2-(((R)-3,3-difluoro-1-azabicyclo[3.2.0]heptan-5-yl)methoxy)-10-fluoro-5,6-dihydro-4H-[1,4]oxazepino[5,6,7-de]quinazolin-4-yl)ethyl)pyrimidin-4-amine] | 9.92 | 5.14 | 9.65 | 7.96 |
